Test results: paper PMC9970268 (Cancer Research Communications, 2022)

Tests used:
Cdc42 [1] = target: T1, Cdc42 (Homo sapiens, UniProt P60953); assay: Nucleotide association assay, induced by EDTA; assay type: biochemical; set-up: purchased Cytoskeleton, Inc; details: for EDTA-induced nucleotide loading of N-MAR-GTP on Cdc42: 2 and 10 μmol/L
Experimental: (§1) The nucleotide loading on purified Rho GTPases was monitored using a fluorophore-based Rho GEF Exchange Assay Kit as per manufacturer's instructions (Cytoskeleton, Inc.). Drugs were diluted in exchange buffer and incubated with Rac1, Cdc42, or RhoA. The uptake of fluorescent nucleotide analog N-methylanthraniloyl-GTP (N-MAR-GTP) was measured as an increase in fluorescence due to binding to the nucleotide binding pocket of a GTPase. The fluorimeter was set at 20°C on kinetic mode and N-MAR GTP was detected at […]. After the initial five readings (T0), GEFs (Dbs or Vav2) or Ethylenediaminetetraacetic acid (EDTA) was added to stimulate exchange and readings were obtained every 30 seconds for at least 60 cycles.

[2] = tested on: Rac, Cdc42, RhoA, PAK, and p-PAK; assay: Western blot of tumor lysates from treated mice; assay type: in vivo, SCID mice; details: GFP-HER2-BM tumors, 5 mg/kg BW, 53 days
Excerpt: Treatments continued until sacrifice at day 53.
Total cell lysates or pulldowns were Western blotted using routine procedures. The primary antibodies used were anti-Rac (Cell Signaling Technology), anti-Cdc42 (Abcam), anti-PAK1+PAK2+PAK3 (Cell Signaling Technology), anti-pPAK1 (T423)/PAK2 (T402; Abcam), anti-PAK1 + PAK2 + PAK3 (phospho T423; Abcam), Rac1B, and β-actin (Millipore-Sigma).

MDA-MB-231 cells = assay: Phalloidin staining of F-actin, cell phenotype; assay type: cell-based, human; details: 250 nmol/L, 12 hours
Excerpt: Cells were fixed, permeabilized, and stained with rhodamine phalloidin to visualize F-actin as described previously ([23]). Fluorescence micrographs were acquired at 40× in a Keyence fluorescence microscope.

[3] = tested on: GFP-HER2-BM mammary fatpad tumors; assay: Orthotopic spontaneous metastasis mouse model; assay type: in vivo; details: for weight and liver toxicity (aspartate transaminase and alanine transaminase from plasma): 5× a week at 5 mg/kg for 53 days
Experimental: All animal studies were conducted under approved protocol A8180118 Institutional Animal Care and Use Committee, in accordance with the NIH Guideline for the Care and Use of Laboratory Animals. Female SCID mice, 3–4 weeks old (Charles River Laboratories, Inc.), were maintained under pathogen-free conditions in High Efficiency Particulate Air (HEPA)-filtered cages.
GFP-HER2-BM (∼7 × 10^5) cells in Matrigel (BD Biosciences) were injected at the fourth right mammary fat pad under isoflurane inhalation (1%–3% in oxygen using an inhalation chamber at 2 L/minute) to produce orthotopic primary tumors. After tumor establishment (1-week after inoculation), animals were randomly divided into treatment groups (n = 5).
[…]. Treatments continued until sacrifice at day 53.
Mammary tumor growth was quantified by integrated density of GFP fluorescence. After tumor establishment, mice were imaged before starting treatment, and once a week thereafter for 53 days, using the iBoxScientia (Analytik-Jena GmbH). Tumor fluorescence intensities were analyzed using ImageJ software (NIH, Bethesda, MD). Relative tumor growth was calculated as the integrated density of fluorescence of each tumor on each day of imaging relative to the integrated density of fluorescence of the same tumor on day 1 of treatment. After sacrifice at day 60, lungs, kidneys, livers, and spleens were excised and immediately stored in liquid N2. To quntify metastasis, stored organs were thawed and analyzed, as whole organs on both sides, using an Olympus MV10 fluorescence macro zoom system microscope and images acquired with an Olympus DP71 digital camera. The fluorescent lesions (green component of RGB images) were quantified for integrated density of fluorescent pixels using Image J software.

Cdc42 [4] = target: T1, Cdc42; assay: Nucleotide association assay, catalyzed by Dbs; assay type: biochemical; set-up: purchased Cytoskeleton, Inc; details: 2 or 10 μmol/L, N-MAR-GTP
Experimental: as §1

HMEC cells = assay: Cell viability (MTT) assay; assay type: cell-based, human; details: 120 hours, 0 to 1,000 nmol/L
Experimental: Using CellTiter 96 Non-Radioactive Cell Proliferation Assay (Promega, Corp.) according to manufactures’ instructions, formazan was used as an indicator of viable cells at an absorbance 570 nm in a Tecan Microplate Reader M100 (Tecan). Data were calculated as fold change from vehicle and transformed to logarithm base 10. 0 concentration was replaced with 1 nmol/L to fit using the 4-parameter logic nonlinear regression model in GraphPad Prism software. (n = 3 biologic replicates: with three technical replicates each).

CYP2C9 = target: T2, CYP2C9 (Homo sapiens, UniProt P11712); assay: CyP450 enzyme assay (P450-Glo); assay type: in vitro ADME; details: recombinant human CYP enzyme, 0.001–100 μmol/L
T2 construct: purchased Promega
T2 sequence (P11712 whole entry): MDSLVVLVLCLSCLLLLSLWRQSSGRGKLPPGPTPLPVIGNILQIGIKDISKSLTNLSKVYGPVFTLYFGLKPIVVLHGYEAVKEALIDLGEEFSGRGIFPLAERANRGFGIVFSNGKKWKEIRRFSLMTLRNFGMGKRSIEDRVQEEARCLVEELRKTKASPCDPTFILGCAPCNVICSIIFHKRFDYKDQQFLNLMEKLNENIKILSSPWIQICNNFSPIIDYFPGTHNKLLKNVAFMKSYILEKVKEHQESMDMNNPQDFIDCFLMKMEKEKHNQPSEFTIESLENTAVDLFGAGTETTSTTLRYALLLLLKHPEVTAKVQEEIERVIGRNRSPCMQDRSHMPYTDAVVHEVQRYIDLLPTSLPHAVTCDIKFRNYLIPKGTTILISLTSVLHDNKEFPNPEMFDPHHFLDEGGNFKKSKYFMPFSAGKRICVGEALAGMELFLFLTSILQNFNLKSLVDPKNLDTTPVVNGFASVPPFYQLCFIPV
Experimental: (§2) The assay was carried out using P450-Glo Screening System (Promega). The system contained recombinant human CYP enzyme and P450 reductase (and cytochrome b5 for CYP2C9, 2C19, and 3A4), luminogenic substrates appropriate for each CYP enzyme, a NADPH regeneration system (containing NADP+), and luciferin detection reagent. […] These compounds and organic solvents acetonitrile, and DMSO were purchased from Sigma-Aldrich.
(§3) First, 12.5 μL of the 4X stock solution of test compounds or positive controls (appropriate for each enzyme) were added to the “treated” wells. For the “untreated” (the values from these wells represent total CYP activity) and “minus-P450 control” wells (the values from these wells represent the CYP-independent background luminescence of the assay), 12.5 μL of vehicle was added. Then, 12.5 μL of the 4X control reaction mixture (containing membrane preparations devoid of CYP enzymes, the appropriate luminogenic substrate, and potassium phosphate buffer) were added to the minus-P450 control wells, and 12.5 μL of the 4X reaction mixture (containing human CYP membrane preparations, the appropriate luminogenic substrate, and potassium phosphate buffer) were added to all other wells. The plates were preincubated at room temperature for 10 minutes with the reaction mixture (membrane with enzyme, substrate, and 1 mol/L potassium phosphate buffer), and then 2X NADPH regeneration system was added to initiate the reaction. After incubation at room temperature for 30 minutes, 50 μL of the Luciferin Detection Reagent was added to stop the reaction and generate the luminescent signal. Before reading, the plate was incubated at room temperature for 20 minutes to stabilize the luminescent signal. The luminescence was measured using an Infinite F200 plate reader (Tecan). […] The percentage of CYP enzyme activity versus log concentration of test compounds were plotted to calculate the IC50 values.

CYP3A4 = target: T3, CYP3A4 (Homo sapiens, UniProt P08684); assay: CyP450 enzyme assay (P450-Glo); assay type: in vitro ADME; details: for IC50: recombinant human CYP enzyme, 0.001–100 μmol/L
T3 construct: purchased Promega
T3 sequence (P08684 whole entry): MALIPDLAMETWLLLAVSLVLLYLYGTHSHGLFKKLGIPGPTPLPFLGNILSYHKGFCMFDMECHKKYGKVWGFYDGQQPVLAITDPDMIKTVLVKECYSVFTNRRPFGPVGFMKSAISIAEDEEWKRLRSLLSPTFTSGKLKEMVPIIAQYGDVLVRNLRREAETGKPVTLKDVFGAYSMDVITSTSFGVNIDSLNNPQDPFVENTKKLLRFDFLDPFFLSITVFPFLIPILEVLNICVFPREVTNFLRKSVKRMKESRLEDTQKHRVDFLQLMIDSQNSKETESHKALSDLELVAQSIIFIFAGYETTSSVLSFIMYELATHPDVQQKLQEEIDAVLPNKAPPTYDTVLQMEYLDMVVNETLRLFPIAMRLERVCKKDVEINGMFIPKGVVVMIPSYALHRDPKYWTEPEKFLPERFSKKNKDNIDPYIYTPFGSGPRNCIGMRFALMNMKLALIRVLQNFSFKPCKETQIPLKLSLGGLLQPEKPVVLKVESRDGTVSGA
Experimental: as §2, §3

CYP2C19 = target: T4, CYP2C19 (Homo sapiens, UniProt P33261); assay: CyP450 enzyme assay (P450-Glo); assay type: in vitro ADME
T4 construct: purchased Promega
T4 sequence (P33261 whole entry): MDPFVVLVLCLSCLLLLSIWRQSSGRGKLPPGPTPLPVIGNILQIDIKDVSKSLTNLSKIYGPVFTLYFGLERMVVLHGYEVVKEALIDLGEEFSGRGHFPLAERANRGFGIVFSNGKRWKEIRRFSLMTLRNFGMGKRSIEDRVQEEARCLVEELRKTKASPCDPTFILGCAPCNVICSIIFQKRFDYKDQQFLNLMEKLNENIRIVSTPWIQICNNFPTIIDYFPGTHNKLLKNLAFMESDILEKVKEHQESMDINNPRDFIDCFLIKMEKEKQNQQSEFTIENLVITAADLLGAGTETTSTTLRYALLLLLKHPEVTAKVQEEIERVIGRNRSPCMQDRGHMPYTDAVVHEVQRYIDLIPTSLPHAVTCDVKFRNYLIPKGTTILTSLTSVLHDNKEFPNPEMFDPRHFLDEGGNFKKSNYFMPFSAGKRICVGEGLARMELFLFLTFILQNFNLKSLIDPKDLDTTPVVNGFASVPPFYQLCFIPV
Experimental: as §2, §3

[5] = 5 mg/kg BW, intraperitoneal, 53 days

T1 sequence (P60953 whole entry): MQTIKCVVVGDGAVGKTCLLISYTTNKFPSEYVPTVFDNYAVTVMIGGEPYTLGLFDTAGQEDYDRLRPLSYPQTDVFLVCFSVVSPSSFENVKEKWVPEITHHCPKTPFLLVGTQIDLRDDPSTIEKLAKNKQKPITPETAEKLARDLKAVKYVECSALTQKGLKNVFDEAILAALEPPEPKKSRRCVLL

What does the source list for `CCn1c2ccccc2c2cc(-n3nncc3-c3ccccc3)ccc21` [MBQ-167]?
EDTA-induced nucleotide loading of N-MAR-GTP on Cdc42 (Cdc42 [1]): inhibited the nucleotide loading of N-MAR-GTP at 10 μmol/L; Cdc42 and RhoA levels [2]: remain unaffected; reduction of Thr 423 phosphorylation in PAKs 1, 2, 3 compared with vehicle [2]: approximately 50%; reduction of p-Serine 141,144,154 levels in PAK1, 2, and 3 [2]: did not show changes; total Rac, and PAK1/2/3 levels [2]: Decreases were observed; cell phenotype, actin cytoskeleton (MDA-MB-231 cells): acquired a round shape with punctate actin staining; inhibition in tumor growth compared with vehicle [3, 5]: approximately 90%; inhibition of lung, liver, and kidney metastases compared with vehicle [3, 5]: approximately 90%; weight and liver toxicity (aspartate transaminase and alanine transaminase from plasma) [3]: did not significantly change weight or liver toxicity; inhibition of GTP loading on Cdc42 catalyzed by Dbs (Cdc42 [4]): did not affect; effect on viability of HMECs (HMEC cells): did not affect the viability of HMECs; IC50 (CYP2C9): 890 nM; IC50 (CYP3A4): 280 nM; IC50 (CYP2C19; recombinant human CYP enzyme, 0.001–100 μmol/L): 455 nM

With `CCn1c2ccccc2c2cc(-n3nncc3-c3cccc(OC)c3)ccc21` [MBQ-168] as the compound, how does the inhibition at 10 µM (Cdc42 [1]; 10 μmol/L, N-MAR-GTP, read-out: inhibition of EDTA-induced GTP exchange on Cdc42) read?
Its inhibition at 10 µM is 100%.

And the “EDTA-induced nucleotide loading of N-MAR-GTP on Cdc42” value (Cdc42 [1])?
The value was “reduced nucleotide loading at both 2 and 10 μmol/L”.

What about the “Cdc42 and RhoA levels” value [2] of the same compound?
The value was “remain unaffected”.

What about the “reduction of Thr 423 phosphorylation in PAKs 1, 2, 3 compared with vehicle” value [2] of the same compound?
The value was “approximately 50%”.

What about the “reduction of p-Serine 141,144,154 levels in PAK1, 2, and 3” value [2] of the same compound?
Its value is “approximately 75%”.

What about the “total Rac, and PAK1/2/3 levels” value [2] of the same compound?
The value was “Decreases were observed”.

What about the “cell phenotype, actin cytoskeleton” value (MDA-MB-231 cells) of the same compound?
The value was “acquired a round shape with punctate actin staining”.

And the “inhibition in tumor growth compared with vehicle” value [3, 5]?
Its value is “approximately 90%”.

And the “weight and liver toxicity (aspartate transaminase and alanine transaminase from plasma)” value [3]?
Its value is “did not significantly change weight or liver toxicity”.

What about the “inhibition of GTP loading on Cdc42 catalyzed by Dbs” value (Cdc42 [4]) of the same compound?
The value was 10%–20%.

And the “effect on viability of HMECs” value (HMEC cells)?
The value was “did not affect the viability of HMECs”.

And the IC50 (CYP2C9)?
Its IC50 is 670 nM.

What about the “potency at inhibiting CYP3A4, times less potent than MBQ-167” value (CYP3A4) of the same compound?
Its value is “approximately 10 X”.

And the IC50 (CYP3A4)?
Its IC50 is 3180 nM.

What about the “CYP2C19 IC50, fold lower than the IC50 for the positive control” value (CYP2C19) of the same compound?
Its value is “approximately 6 fold”.

And the IC50 at 30 min (CYP2C19; human, recombinant human CYP enzyme, 0.001–100 μmol/L)?
The IC50 at 30 min was 523 nM.
